# Reference: PMC6972920, “Structure-based development of caged dopamine D2/D3 receptor antagonists” (Scientific Reports, 2020)
# Columns and labels:
# [1] = Quantum yield determination of uncaging (365 nm LED); format: physicochemical; conditions: for quantum yield φ for photolytic liberation of dechloroeticlopride: 365 nm; for quantum yield ϕ: 0.1 mM in aqueous buffer; for quantum yield ϕ / yield of liberated dechloroeticlopride: 365 nm LED
# Experimental: Quantum yield determination. Quantum yields were determined in the following setup: translation stages (horizontal and vertical): Thorlabs DT 25/M or DT S25/M; photographic lens with f = 50 mm; magnetic stirrer: Faulhaber motor (1524B024S R) with 14:1 gear (15A); PS19Q power sensor from Coherent; PowerMax software; adjustable power supply “Basetech BT-153 0-15 V/DC 0-3 A 45 W” [2].
# Measurements were performed in a covered apparatus to minimize the influence of ambient light. A 10 mm Hellma® quartz fluorescence cuvette with solvent (aqueous buffer solution, 2 ml) and a stirring bar was placed in the beam of a 365 nm LED and the transmitted power (Pref = 4.40 mW) was measured by a calibrated photodiode horizontal to the cuvette. The content of the cuvette was changed to a 0.1 mM solution of the respective caged compound in aqueous buffer (2 ml) with a stirring bar. The transmitted power was measured analogously to the blank solution. The sample was further irradiated and the transmitted power as well as the respective yield of liberated benzamide dechloroeticlopride was recorded after different times. The quantum yield was then calculated with the following […]
# ϕ = N௉ = c௉ ∙ V ∙N஺ ∙ h ∙c
# ϕ = quantum yield h = Planck constant
# N௉ = number of product molecules formed c = speed of light
# N௉௛.௔௕௦. = number of absorbed photons P௔௕௦. = radiant power absorbed
# c௉ = product concentration ∆t = irradiation time
# V = sample volume λ = irradiation wavelength […]
# entry compound irradiation time Pabs. yield ϕ
# [2] = target: T1, human dopamine D5 receptor (Homo sapiens, UniProt P21918); test: Competition binding, [3H]SCH23390, HEK293T membranes
# T1 construct: expressed in transfected cells; host or cells: HEK293T cells, transient transfection
# T1 sequence (P21918 whole entry): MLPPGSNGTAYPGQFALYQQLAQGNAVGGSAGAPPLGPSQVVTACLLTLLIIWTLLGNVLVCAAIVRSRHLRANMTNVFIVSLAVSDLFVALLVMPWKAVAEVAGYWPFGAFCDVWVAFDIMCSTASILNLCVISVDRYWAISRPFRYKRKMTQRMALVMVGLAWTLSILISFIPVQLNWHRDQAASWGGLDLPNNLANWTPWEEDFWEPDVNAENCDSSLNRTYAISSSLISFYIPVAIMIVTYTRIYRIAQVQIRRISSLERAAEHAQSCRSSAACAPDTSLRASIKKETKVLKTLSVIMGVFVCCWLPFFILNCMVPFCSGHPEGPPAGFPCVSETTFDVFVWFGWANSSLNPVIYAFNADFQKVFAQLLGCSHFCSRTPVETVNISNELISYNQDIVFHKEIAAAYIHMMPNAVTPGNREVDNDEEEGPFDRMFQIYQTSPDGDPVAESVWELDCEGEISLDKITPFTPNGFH
# [3] = target: T2, human serotonin 5-HT1A receptor (Homo sapiens, UniProt P08908); test: Competition binding, [3H]WAY600135, HEK293T membranes; conditions: ± SD of two experiments
# T2 construct: expressed in transfected cells; host or cells: HEK293T cells, transient transfection
# T2 sequence (P08908 1-422): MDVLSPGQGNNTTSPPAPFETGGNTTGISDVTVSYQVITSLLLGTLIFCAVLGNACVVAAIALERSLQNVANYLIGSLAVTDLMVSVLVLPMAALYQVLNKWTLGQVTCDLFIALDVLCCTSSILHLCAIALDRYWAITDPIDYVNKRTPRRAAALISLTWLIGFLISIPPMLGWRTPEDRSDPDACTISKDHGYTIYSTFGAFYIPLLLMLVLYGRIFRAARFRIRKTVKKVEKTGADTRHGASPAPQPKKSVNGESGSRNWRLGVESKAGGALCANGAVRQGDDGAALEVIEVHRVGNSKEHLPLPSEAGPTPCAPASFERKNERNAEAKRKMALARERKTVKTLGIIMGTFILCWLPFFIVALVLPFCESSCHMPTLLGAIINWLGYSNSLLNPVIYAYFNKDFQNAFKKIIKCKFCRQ
# [4] = target: T3, human serotonin 5-HT2A receptor (Homo sapiens, UniProt P28223); test: Competition binding, [3H]ketanserin, HEK293T membranes; conditions: ± SD of two experiments
# T3 construct: expressed in transfected cells; host or cells: HEK293T cells, transient transfection
# T3 sequence (P28223 whole entry): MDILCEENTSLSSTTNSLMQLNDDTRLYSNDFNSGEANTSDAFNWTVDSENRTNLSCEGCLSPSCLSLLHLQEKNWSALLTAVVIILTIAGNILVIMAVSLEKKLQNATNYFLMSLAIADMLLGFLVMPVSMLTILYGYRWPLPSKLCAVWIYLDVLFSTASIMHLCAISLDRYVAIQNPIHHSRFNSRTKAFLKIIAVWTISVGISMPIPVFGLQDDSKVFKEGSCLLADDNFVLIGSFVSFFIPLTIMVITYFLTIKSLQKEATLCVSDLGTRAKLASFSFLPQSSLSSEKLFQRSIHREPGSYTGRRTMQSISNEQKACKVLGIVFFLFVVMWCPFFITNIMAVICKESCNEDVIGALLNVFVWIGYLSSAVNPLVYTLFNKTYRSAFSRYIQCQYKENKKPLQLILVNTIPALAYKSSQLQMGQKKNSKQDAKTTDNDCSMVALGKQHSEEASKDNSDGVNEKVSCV
# [5] = target: T4, human dopamine D1 receptor (Homo sapiens, UniProt P21728); test: Competition binding, [3H]SCH23390, HEK293T membranes; conditions: read-out: Ki value D1
# T4 construct: expressed in transfected cells; host or cells: HEK293T cells, transient transfection
# T4 sequence (P21728 whole entry): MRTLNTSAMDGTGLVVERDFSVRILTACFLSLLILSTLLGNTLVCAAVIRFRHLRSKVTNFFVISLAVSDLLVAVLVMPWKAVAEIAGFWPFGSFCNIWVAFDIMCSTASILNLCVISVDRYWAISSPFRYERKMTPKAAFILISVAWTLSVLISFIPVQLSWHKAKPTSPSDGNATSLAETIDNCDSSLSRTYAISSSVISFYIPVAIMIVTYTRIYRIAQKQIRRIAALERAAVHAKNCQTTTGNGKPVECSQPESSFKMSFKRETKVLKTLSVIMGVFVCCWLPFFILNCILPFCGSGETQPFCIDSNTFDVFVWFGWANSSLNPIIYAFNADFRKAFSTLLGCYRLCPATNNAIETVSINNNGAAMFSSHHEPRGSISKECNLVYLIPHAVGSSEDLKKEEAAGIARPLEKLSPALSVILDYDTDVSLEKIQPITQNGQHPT
# [6] = target: T5, human adrenergic α2A receptor (Homo sapiens, UniProt P08913); test: Competition binding, [3H]RX821002, HEK293T membranes; conditions: [3H]RX821002; ± SD of two experiments
# T5 construct: expressed in transfected cells; host or cells: HEK293T cells, transient transfection
# T5 sequence (P08913 1-465): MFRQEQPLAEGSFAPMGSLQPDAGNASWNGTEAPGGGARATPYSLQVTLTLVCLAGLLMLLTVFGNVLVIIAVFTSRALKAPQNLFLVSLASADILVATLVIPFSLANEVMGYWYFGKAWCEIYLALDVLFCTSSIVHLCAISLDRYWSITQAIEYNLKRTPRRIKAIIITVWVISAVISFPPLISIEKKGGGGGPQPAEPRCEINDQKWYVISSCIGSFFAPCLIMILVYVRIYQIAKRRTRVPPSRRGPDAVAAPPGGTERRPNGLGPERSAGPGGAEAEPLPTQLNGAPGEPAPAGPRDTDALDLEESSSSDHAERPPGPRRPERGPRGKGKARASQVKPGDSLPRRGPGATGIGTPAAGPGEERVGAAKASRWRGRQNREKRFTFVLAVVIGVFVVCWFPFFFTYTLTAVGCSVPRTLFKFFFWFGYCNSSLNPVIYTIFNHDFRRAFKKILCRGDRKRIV
# D2 and D3 receptors = test: Radioligand binding, summary over D2 and D3 subtypes; parameters: species or system human
# [7] = target: T6, human adrenergic β2 receptor (Homo sapiens, UniProt P07550); test: Competition binding, [3H]CGP12177, HEK293T membranes; conditions: ± SD of two experiments
# T6 construct: expressed in transfected cells; host or cells: HEK293T cells, transient transfection
# T6 sequence (P07550 whole entry): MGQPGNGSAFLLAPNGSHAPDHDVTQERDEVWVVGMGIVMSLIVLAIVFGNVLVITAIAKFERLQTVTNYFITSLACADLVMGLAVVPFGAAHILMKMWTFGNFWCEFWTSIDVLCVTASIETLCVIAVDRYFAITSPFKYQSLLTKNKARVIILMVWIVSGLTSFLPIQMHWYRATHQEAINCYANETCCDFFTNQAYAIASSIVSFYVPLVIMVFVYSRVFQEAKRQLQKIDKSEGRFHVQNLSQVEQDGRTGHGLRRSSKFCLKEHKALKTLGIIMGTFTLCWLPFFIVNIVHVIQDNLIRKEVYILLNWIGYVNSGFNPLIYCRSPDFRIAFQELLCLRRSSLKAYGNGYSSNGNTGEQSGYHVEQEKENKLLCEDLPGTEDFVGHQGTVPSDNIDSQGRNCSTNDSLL
# [8] = target: T7, human adrenergic α1A receptor (Homo sapiens, UniProt P35348); test: Competition binding, [3H]prazosin, HEK293T membranes; conditions: ± SD of two experiments
# T7 construct: expressed in transfected cells; host or cells: HEK293T cells, transient transfection
# T7 sequence (P35348 1-466): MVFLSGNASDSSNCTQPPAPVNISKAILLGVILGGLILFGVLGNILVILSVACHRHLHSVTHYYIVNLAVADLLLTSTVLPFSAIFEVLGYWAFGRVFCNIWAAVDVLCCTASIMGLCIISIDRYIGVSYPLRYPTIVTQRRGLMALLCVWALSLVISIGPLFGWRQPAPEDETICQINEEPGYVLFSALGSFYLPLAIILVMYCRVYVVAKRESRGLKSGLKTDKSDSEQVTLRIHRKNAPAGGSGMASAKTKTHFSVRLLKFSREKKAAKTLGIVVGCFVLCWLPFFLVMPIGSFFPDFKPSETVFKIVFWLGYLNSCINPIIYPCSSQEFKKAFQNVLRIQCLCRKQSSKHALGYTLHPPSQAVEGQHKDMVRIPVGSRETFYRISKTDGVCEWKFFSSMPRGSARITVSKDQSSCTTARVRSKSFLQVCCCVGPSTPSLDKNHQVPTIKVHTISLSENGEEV
quantum yield φ for photolytic liberation of dechloroeticlopride [1] [%],quantum yield ϕ ([1]; irradiation time 10 min) [%],yield of liberated dechloroeticlopride ([1]; irradiation time 10 min) [%],quantum yield ϕ ([1]; irradiation time 30 min) [%],yield of liberated dechloroeticlopride ([1]; irradiation time 30 min) [%],Ki [2] [nM],Ki [3] [nM],Ki [4] [nM],Ki [5] [nM],Ki [6] [nM],"difference in affinity, uncaged dechloroeticlopride over 4, 5 and 6 (D2 and D3 receptors; at D2S and D3, radioligand displacement curves)","Ki (D2 and D3 receptors; range over D2L, D2S, D3, stated in text) [nM]",Ki [7] [nM],Ki [8] [nM],Structure (SMILES)
0.5,2.9,11,1.2,16,,,,,,,,,,"CCc1ccc(OC)c(C(=O)NC[C@@H]2CCCN2CC)c1OCc1ccccc1[N+](=O)[O-] [compound 4, (S)-3-Ethyl-N-[(1-ethylpyrrolidin-2-yl)methyl]-6-methoxy-2-[(2-nitrobenzyl)oxy]benzamide]"
2.1,0.7,17,0.3,22,,,,,,,,,,CCc1ccc(OC)c(C(=O)NC[C@@H]2CCCN2CC)c1OCc1cc(OC)c(OC)cc1[N+](=O)[O-] [compound 5]
,,,,,49000 ± 17000,1800 ± 420,270 ± 28,11000 ± 3600,100 ± 36,more than 100 fold,1.2 to 2.4,8900 ± 3000,880 ± 150,"CCc1ccc(OC)c(C(=O)NC[C@@H]2CCCN2CC)c1O [dechloroeticlopride, (S)-3-Ethyl-N-[(1-ethylpyrrolidin-2-yl)methyl]-2-hydroxy-6-methoxybenzamide, reference compound]"
